The source of these data is patent US10781211B2, “Spirocycle compounds and methods of making and using same” (Lundbeck La Jolla Research Center, Inc., priority 2016, dated 2020).

Assay type in all cases: in vivo
Common to all, as to settings: 5 mg/kg oral gavage

Assay [1] addresses MAGL (Mus musculus (Mouse), UniProt O35678). Briefly: Mouse brain proteomes from inhibitor treated mice (oral gavage, sacrifice 4 h after administration, ABPP analysis). The protocol: (§1) Preparation of Mouse Brain Proteomes from Inhibitor Treated Mice.
(§2) Inhibitors were administered to wild-type C57Bl/6J by oral gavage in a vehicle, e.g. PEG400/Ethanol/PBS (7/2/1). Each animal was sacrificed 4 h following administration and brain proteomes were prepared and analyzed according to previously established methods (See Niphakis, M. J., et al. (2011) ACS Chem. Neurosci. and Long, J. Z., et al. Nat. Chem. Biol. 5:37-44). Data from this assay is shown in Table 2 (% inhibition at 5 mg/kg).

Assay [2] deals with FAAH (Mus musculus (Mouse), UniProt O08914). In words: Mouse brain proteomes from inhibitor treated mice (oral gavage, sacrifice 4 h after administration, ABPP analysis), FAAH. The protocol:
as §1, §2

The target of assay [3] is ABHD6 (Mus musculus (Mouse), UniProt Q8R2Y0). In words: Mouse brain proteomes from inhibitor treated mice (oral gavage, sacrifice 4 h after administration, ABPP analysis), ABHD6. The protocol: as §1, §2
Sequence of ABHD6 (Q8R2Y0 whole entry): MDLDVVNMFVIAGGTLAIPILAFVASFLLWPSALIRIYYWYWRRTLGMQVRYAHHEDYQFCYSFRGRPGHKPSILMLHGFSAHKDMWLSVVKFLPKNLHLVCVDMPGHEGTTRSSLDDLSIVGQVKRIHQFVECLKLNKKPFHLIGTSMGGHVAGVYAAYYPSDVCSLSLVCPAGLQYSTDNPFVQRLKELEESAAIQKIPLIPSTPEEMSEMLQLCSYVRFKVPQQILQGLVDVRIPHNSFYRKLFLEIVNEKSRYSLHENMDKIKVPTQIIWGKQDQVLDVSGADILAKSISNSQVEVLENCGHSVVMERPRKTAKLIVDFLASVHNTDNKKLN

Sequence of MAGL (O35678 whole entry): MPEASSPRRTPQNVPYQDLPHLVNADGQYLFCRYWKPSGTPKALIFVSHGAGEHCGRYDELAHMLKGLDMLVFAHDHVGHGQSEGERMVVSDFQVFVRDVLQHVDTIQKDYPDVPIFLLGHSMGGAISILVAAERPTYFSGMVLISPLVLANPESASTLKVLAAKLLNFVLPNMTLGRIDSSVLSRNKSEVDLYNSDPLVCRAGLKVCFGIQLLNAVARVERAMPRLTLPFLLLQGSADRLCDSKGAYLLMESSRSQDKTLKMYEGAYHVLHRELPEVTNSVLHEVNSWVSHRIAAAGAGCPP
Sequence of FAAH (O08914 whole entry): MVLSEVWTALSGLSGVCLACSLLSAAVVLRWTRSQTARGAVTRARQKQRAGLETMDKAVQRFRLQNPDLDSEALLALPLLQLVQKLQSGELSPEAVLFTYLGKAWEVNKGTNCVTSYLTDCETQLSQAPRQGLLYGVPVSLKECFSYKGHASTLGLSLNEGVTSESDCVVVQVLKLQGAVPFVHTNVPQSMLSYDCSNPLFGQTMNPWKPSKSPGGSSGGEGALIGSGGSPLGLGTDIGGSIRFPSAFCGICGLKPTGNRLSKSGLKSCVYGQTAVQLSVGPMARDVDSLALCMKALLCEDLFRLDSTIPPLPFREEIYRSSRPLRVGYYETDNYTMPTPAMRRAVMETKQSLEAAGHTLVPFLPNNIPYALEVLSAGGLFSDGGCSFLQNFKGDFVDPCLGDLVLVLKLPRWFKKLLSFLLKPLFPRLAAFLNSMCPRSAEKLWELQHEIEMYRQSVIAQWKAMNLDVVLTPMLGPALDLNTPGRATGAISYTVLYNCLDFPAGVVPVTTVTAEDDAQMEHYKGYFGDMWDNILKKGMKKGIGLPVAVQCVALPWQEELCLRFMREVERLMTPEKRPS

`CCOc1cccc(CN2CCCC23CCN(C(=O)OC(C(F)(F)F)C(F)(F)F)CC3)c1` [Example 5, 1,1,1,3,3,3-Hexafluoropropan-2-yl 1-(3-ethoxybenzyl)-1,8-diazaspiro[4.5]decane-8-carboxylate]: in assay [1], the “MAGL % Inh 5 mg/kg (mouse)” value is “### (### is ≥ 75%)”. In addition, in assay [2], the “FAAH % Inh 5 mg/kg (mouse)” value is “# (# is < 25%)”.
As to `COc1ccc(F)cc1CN1CCCC12CCN(C(=O)OC(C(F)(F)F)C(F)(F)F)CC2` [Example 8, 1,1,1,3,3,3-Hexafluoropropan-2-yl 1-(5-fluoro-2-methoxybenzyl)-1,8-diazaspiro[4.5]decane-8-carboxylate], the “MAGL % Inh 5 mg/kg (mouse)” value in assay [1] is given as “### (### is ≥ 75%)”.
Consider `O=C(OC(C(F)(F)F)C(F)(F)F)N1CCC2(CCN(Cc3ccc(Cl)cc3N3CCOCC3)C2)CC1` [Example 21, 1,1,1,3,3,3-Hexafluoropropan-2-yl 2-(4-chloro-2-morpholinobenzyl)-2,8-diazaspiro[4.5]decane-8-carboxylate], for which, in assay [1], the “MAGL % Inh 5 mg/kg (mouse)” value is “### (### is ≥ 75%)”. In addition, in assay [2], the “FAAH % Inh 5 mg/kg (mouse)” value was “# (# is < 25%)”.
As for `O=C(OC(C(F)(F)F)C(F)(F)F)N1CCC2(CCCN2Cc2ccc(OCCF)cc2)CC1` [Example 31, 1,1,1,3,3,3-Hexafluoropropan-2-yl 1-(4-(2-fluoroethoxy)benzyl)-1,8-diazaspiro[4.5]decane-8-carboxylate], the “MAGL % Inh 5 mg/kg (mouse)” value in assay [1] was “### (### is ≥ 75%)”. In addition, the “FAAH % Inh 5 mg/kg (mouse)” value in assay [2] is recorded as “# (# is < 25%)”.
`O=C(OC(C(F)(F)F)C(F)(F)F)N1CCC2(CCCN2Cc2ccc(Cl)cc2)CC1` [Example 62, 1,1,1,3,3,3-Hexafluoropropan-2-yl 1-(4-chlorobenzyl)-1,8-diazaspiro[4.5]decane-8-carboxylate]: the “MAGL % Inh 5 mg/kg (mouse)” value in assay [1] was “### (### is ≥ 75%)”.
Take `O=C(OC(C(F)(F)F)C(F)(F)F)N1CCC2(CCCN2Cc2cccc(N3CCCCC3)c2Cl)CC1` [Example 80, 1,1,1,3,3,3-Hexafluoropropan-2-yl 1-(2-chloro-3-(piperidin-1-yl)benzyl)-1,8-diazaspiro[4.5]decane-8-carboxylate]: the “MAGL % Inh 5 mg/kg (mouse)” value in assay [1] was “### (### is ≥ 75%)”.
For the compound `O=C(O)C1CCN(c2cc(Cl)cc(CN3CCCC34CCN(C(=O)OC(C(F)(F)F)C(F)(F)F)CC4)c2)CC1` [Example 122, 1-(3-Chloro-5-((8-(((1,1,1,3,3,3-hexafluoropropan-2-yl)oxy)carbonyl)-1,8-diazaspiro[4.5]decan-1-yl)methyl)phenyl)piperidine-4-carboxylic acid], the “MAGL % Inh 5 mg/kg (mouse)” value in assay [1] is given as “### (### is ≥ 75%)”.
For the compound `O=C(OC(C(F)(F)F)C(F)(F)F)N1CCC2(CCCN2Cc2ccc3c(c2)COC3)CC1` [Example 151, 1,1,1,3,3,3-Hexafluoropropan-2-yl 1-((1,3-dihydroisobenzofuran-5-yl)methyl)-1,8-diazaspiro[4.5]decane-8-carboxylate], the “MAGL % Inh 5 mg/kg (mouse)” value in assay [1] is “### (### is ≥ 75%)”.
Take `O=C(COc1cc(CN2CCCC23CCN(C(=O)OC(C(F)(F)F)C(F)(F)F)CC3)cc(C(F)(F)F)c1)N1CCCC1` [Example 168, 1,1,1,3,3,3-Hexafluoropropan-2-yl 1-(3-(2-oxo-2-(pyrrolidin-1-yl)ethoxy)-5-(trifluoromethyl)benzyl)-1,8-diazaspiro[4.5]decane-8-carboxylate]: in assay [2], the “FAAH % Inh 5 mg/kg (mouse)” value is on record as “# (# is < 25%)”. Further, in assay [3], the “ABHD6 % Inh 5 mg/kg (mouse)” value is “# (# is < 25%)”.
For `O=C(OC(C(F)(F)F)C(F)(F)F)N1CCC2(CCCN2Cc2cc(OC3CCOCC3)cc(C(F)(F)F)c2)CC1` [Example 170, 1,1,1,3,3,3-Hexafluoropropan-2-yl 1-(3-(tetrahydro-2H-pyran-4-yloxy)-5-(trifluoromethyl)benzyl)-1,8-diazaspiro[4.5]decane-8-carboxylate], the “FAAH % Inh 5 mg/kg (mouse)” value in assay [2] is given as “# (# is < 25%)”. The “ABHD6 % Inh 5 mg/kg (mouse)” value in assay [3] was “# (# is < 25%)”.
For `O=C(OC(C(F)(F)F)C(F)(F)F)N1CCC2(CCCN2Cc2ccc(C(F)(F)F)cc2Oc2cccnc2)CC1` [Example 173, 1,1,1,3,3,3-Hexafluoropropan-2-yl 1-(2-(pyridin-3-yloxy)-4-(trifluoromethyl)benzyl)-1,8-diazaspiro[4.5]decane-8-carboxylate], the “FAAH % Inh 5 mg/kg (mouse)” value in assay [2] is listed as “# (# is < 25%)”. The “ABHD6 % Inh 5 mg/kg (mouse)” value in assay [3] is on record as “# (# is < 25%)”.
For the compound `O=C(OC(C(F)(F)F)C(F)(F)F)N1CCC2(CCCN2Cc2cc(Oc3cccnc3)cc(C(F)(F)F)c2)CC1` [Example 174, 1,1,1,3,3,3-Hexafluoropropan-2-yl 1-(3-(pyridin-3-yloxy)-5-(trifluoromethyl)benzyl)-1,8-diazaspiro[4.5]decane-8-carboxylate], the “FAAH % Inh 5 mg/kg (mouse)” value in assay [2] was “# (# is < 25%)”. Also, the “ABHD6 % Inh 5 mg/kg (mouse)” value in assay [3] is “# (# is < 25%)”.
As to `O=C(OC(C(F)(F)F)C(F)(F)F)N1CCC2(CCCN2Cc2cc(OC3CCS(=O)(=O)CC3)cc(C(F)(F)F)c2)CC1` [Example 176, 1,1,1,3,3,3-Hexafluoropropan-2-yl 1-(3-((1,1-dioxidotetrahydro-2H-thiopyran-4-yl)oxy)-5-(trifluoromethyl)benzyl)-1,8-diazaspiro[4.5]decane-8-carboxylate], the “FAAH % Inh 5 mg/kg (mouse)” value in assay [2] is given as “# (# is < 25%)”. In assay [3], the “ABHD6 % Inh 5 mg/kg (mouse)” value is listed as “# (# is < 25%)”.
As for `Cc1ccc(CN2CCCC23CCN(C(=O)OC(C(F)(F)F)C(F)(F)F)CC3)cc1C(F)(F)F` [Example 180, 1,1,1,3,3,3-Hexafluoropropan-2-yl 1-(4-methyl-3-(trifluoromethyl)benzyl)-1,8-diazaspiro[4.5]decane-8-carboxylate], in assay [1], the “MAGL % Inh 5 mg/kg (mouse)” value is listed as “### (### is ≥ 75%)”.
With `CN1CCN(c2c(Cl)cccc2CN2CC3(CCN(C(=O)OC(C(F)(F)F)C(F)(F)F)CC3)CC2(C)C)CC1` [Example 189, 1,1,1,3,3,3-Hexafluoropropan-2-yl 2-(3-chloro-2-(4-methylpiperazin-1-yl)benzyl)-3,3-dimethyl-2,8-diazaspiro[4.5]decane-8-carboxylate], the “FAAH % Inh 5 mg/kg (mouse)” value in assay [2] was “# (# is < 25%)”. In addition, the “ABHD6 % Inh 5 mg/kg (mouse)” value in assay [3] is recorded as “# (# is < 25%)”.
In the case of `CS(=O)(=O)C1CCN(c2cc(C(F)(F)F)ccc2CN2CCCC23CCN(C(=O)OC(C(F)(F)F)C(F)(F)F)CC3)C1` (stereo not drawn) [Example 193, 1,1,1,3,3,3-Hexafluoropropan-2-yl 1-(2-(3-(methylsulfonyl)pyrrolidin-1-yl)-4-(trifluoromethyl)benzyl)-1,8-diazaspiro[4.5]decane-8-carboxylate], the “FAAH % Inh 5 mg/kg (mouse)” value in assay [2] was “# (# is < 25%)”. In assay [3], the “ABHD6 % Inh 5 mg/kg (mouse)” value is “# (# is < 25%)”.
With `O=C(O)C1CCN(Cc2cc(Cl)cc(CN3CCCC34CCN(C(=O)OC(C(F)(F)F)C(F)(F)F)CC4)c2)CC1` [Example 194, 1-(3-Chloro-5-((8-(((1,1,1,3,3,3-hexafluoropropan-2-yl)oxy)carbonyl)-1,8-diazaspiro[4.5]decan-1-yl)methyl)benzyl)piperidine-4-carboxylic acid], the “FAAH % Inh 5 mg/kg (mouse)” value in assay [2] is “# (# is < 25%)”. In addition, in assay [3], the “ABHD6 % Inh 5 mg/kg (mouse)” value is reported as “# (# is < 25%)”.
Turning to `O=C(O)C1CCN(c2cc(C(F)(F)F)ccc2CN2CCCC23CCN(C(=O)OC(C(F)(F)F)C(F)(F)F)CC3)C1` (stereo not drawn) [Example 199], in assay [2], the “FAAH % Inh 5 mg/kg (mouse)” value is “# (# is < 25%)”. The “ABHD6 % Inh 5 mg/kg (mouse)” value in assay [3] is recorded as “# (# is < 25%)”.
On to `O=C(O)C1COCCN1c1cc(CN2CCCC23CCN(C(=O)OC(C(F)(F)F)C(F)(F)F)CC3)cc(C(F)(F)F)c1` (stereo not drawn) [Example 200], for which the “FAAH % Inh 5 mg/kg (mouse)” value in assay [2] is recorded as “# (# is < 25%)”. Moreover, in assay [3], the “ABHD6 % Inh 5 mg/kg (mouse)” value was “# (# is < 25%)”.
With `O=C(O)[C@@H]1CCCN(c2cc(C(F)(F)F)ccc2CN2CCC3(CCN(C(=O)OC(C(F)(F)F)C(F)(F)F)CC3)C2)C1` [Example 211], the “FAAH % Inh 5 mg/kg (mouse)” value in assay [2] was “# (# is < 25%)”. The “ABHD6 % Inh 5 mg/kg (mouse)” value in assay [3] is reported as “# (# is < 25%)”.
With `CC1(C(=O)O)CCCN(c2cc(C(F)(F)F)ccc2CN2CCC3(CCN(C(=O)OC(C(F)(F)F)C(F)(F)F)CC3)C2)C1` (stereo not drawn) [Example 216], the “FAAH % Inh 5 mg/kg (mouse)” value in assay [2] was “# (# is < 25%)”. In addition, the “ABHD6 % Inh 5 mg/kg (mouse)” value in assay [3] is reported as “# (# is < 25%)”.
Turning to `CC1(C(=O)O)CCN(c2cc(C(F)(F)F)ccc2CN2CCCC23CCN(C(=O)OC(C(F)(F)F)C(F)(F)F)CC3)C1` (stereo not drawn) [Example 230], the “FAAH % Inh 5 mg/kg (mouse)” value in assay [2] was “# (# is < 25%)”. Also, in assay [3], the “ABHD6 % Inh 5 mg/kg (mouse)” value is listed as “# (# is < 25%)”.
Consider `N#Cc1ccc(CN2CCCC23CCN(C(=O)OC(C(F)(F)F)C(F)(F)F)CC3)c(N2CCC(C(=O)O)CC2)c1` [Example 249], for which the “FAAH % Inh 5 mg/kg (mouse)” value in assay [2] is listed as “# (# is < 25%)”. For the same compound, the “ABHD6 % Inh 5 mg/kg (mouse)” value in assay [3] is recorded as “# (# is < 25%)”.
Take `O=C(O)C1CCN(Cc2cc(CN3CCCC34CCN(C(=O)OC(C(F)(F)F)C(F)(F)F)CC4)cc(C(F)(F)F)c2)C1` (stereo not drawn) [Example 253]: in assay [2], the “FAAH % Inh 5 mg/kg (mouse)” value is reported as “# (# is < 25%)”. For the same compound, the “ABHD6 % Inh 5 mg/kg (mouse)” value in assay [3] is “# (# is < 25%)”.
For `O=C(O)C1CCN(Cc2cc(C(F)(F)F)ccc2CN2CCCC23CCN(C(=O)OC(C(F)(F)F)C(F)(F)F)CC3)C1` (stereo not drawn) [Example 262], the “FAAH % Inh 5 mg/kg (mouse)” value in assay [2] is on record as “# (# is < 25%)”. In addition, the “ABHD6 % Inh 5 mg/kg (mouse)” value in assay [3] is given as “# (# is < 25%)”.
On to `O=C(O)C1CCN(Cc2cc(CN3CCCC34CCN(C(=O)OC(C(F)(F)F)C(F)(F)F)CC4)cc(OC(F)(F)F)c2)CC1` [Example 269], for which the “FAAH % Inh 5 mg/kg (mouse)” value in assay [2] is “# (# is < 25%)”. The “ABHD6 % Inh 5 mg/kg (mouse)” value in assay [3] is listed as “# (# is < 25%)”.
Regarding `O=C(O)C1CCN(Cc2cc(CN3CCCC34CCN(C(=O)OC(C(F)(F)F)C(F)(F)F)CC4)cc(OC(F)(F)F)c2)C1` (stereo not drawn) [Example 270], the “FAAH % Inh 5 mg/kg (mouse)” value in assay [2] is recorded as “# (# is < 25%)”. In assay [3], the “ABHD6 % Inh 5 mg/kg (mouse)” value is “# (# is < 25%)”.
